Test results taken from ChEMBL document CHEMBL5649169 (ChemMedChem, 2018).

Legend:
Nucleolin (Homo sapiens) = Nucleolin (Homo sapiens) (UniProt P19338); note: assay method not described here
[1] = molecular target: Small ribosomal subunit protein uS14 (Homo sapiens) (UniProt P62273); note: assay method not described here
Vinculin (Homo sapiens) = Vinculin (Homo sapiens) (UniProt P18206); note: assay method not described here
[2] = molecular target: Small ribosomal subunit protein uS3 (Homo sapiens) (UniProt P23396); note: assay method not described here
Homo sapiens [3] = species: Homo sapiens; note: assay method not described here
[4] = molecular target: Receptor-type tyrosine-protein kinase FLT3 (Homo sapiens) (UniProt P36888); note: assay method not described here
Homo sapiens [5] = species: Homo sapiens; remark: listed apart in the source; note: assay method not described here
Cullin-3 (Homo sapiens) = Cullin-3 (Homo sapiens) (UniProt Q13618); note: assay method not described here
[6] = molecular target: Neutral amino acid transporter B(0) (Homo sapiens) (UniProt Q15758); note: assay method not described here
[7] = molecular target: Large ribosomal subunit protein eL21 (Homo sapiens) (UniProt P46778); note: assay method not described here
[8] = molecular target: High affinity cationic amino acid transporter 1 (Homo sapiens) (UniProt P30825); note: assay method not described here
[9] = molecular target: Cytochrome b-c1 complex subunit 1, mitochondrial (Homo sapiens) (UniProt P31930); note: assay method not described here
[10] = molecular target: 60 kDa heat shock protein, mitochondrial (Homo sapiens) (UniProt P10809); note: assay method not described here
[11] = molecular target: Phenylalanine--tRNA ligase alpha subunit (Homo sapiens) (UniProt Q9Y285); note: assay method not described here
[12] = molecular target: ATP synthase F(1) complex subunit delta, mitochondrial (Homo sapiens) (UniProt P30049); note: assay method not described here
[13] = molecular target: Centromere/kinetochore protein zw10 homolog (Homo sapiens) (UniProt O43264); note: assay method not described here
[14] = molecular target: Serine/arginine-rich splicing factor 3 (Homo sapiens) (UniProt P84103); note: assay method not described here
Chain of Serine/arginine-rich splicing factor 3 (Homo sapiens) (P84103 whole entry): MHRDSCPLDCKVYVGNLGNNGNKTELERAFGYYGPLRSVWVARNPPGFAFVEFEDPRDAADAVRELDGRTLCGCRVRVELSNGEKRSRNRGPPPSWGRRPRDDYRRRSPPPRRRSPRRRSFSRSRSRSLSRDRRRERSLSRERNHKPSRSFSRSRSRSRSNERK

[15] = molecular target: Serine/threonine-protein kinase TAO1 (Homo sapiens) (UniProt Q7L7X3); note: assay method not described here
[16] = molecular target: ATPase family AAA domain-containing protein 3A (Homo sapiens) (UniProt Q9NVI7); note: assay method not described here
[17] = molecular target: Serine/threonine-protein phosphatase 2A 55 kDa regulatory subunit B alpha isoform (Homo sapiens) (UniProt P63151); note: assay method not described here
[18] = molecular target: Ras-related protein Rab-8A (Homo sapiens) (UniProt P61006); note: assay method not described here
[19] = molecular target: Serine/threonine-protein kinase SIK3 (Homo sapiens) (UniProt Q9Y2K2); note: assay method not described here
Chain of Serine/threonine-protein kinase SIK3 (Homo sapiens) (Q9Y2K2 whole entry, looked up): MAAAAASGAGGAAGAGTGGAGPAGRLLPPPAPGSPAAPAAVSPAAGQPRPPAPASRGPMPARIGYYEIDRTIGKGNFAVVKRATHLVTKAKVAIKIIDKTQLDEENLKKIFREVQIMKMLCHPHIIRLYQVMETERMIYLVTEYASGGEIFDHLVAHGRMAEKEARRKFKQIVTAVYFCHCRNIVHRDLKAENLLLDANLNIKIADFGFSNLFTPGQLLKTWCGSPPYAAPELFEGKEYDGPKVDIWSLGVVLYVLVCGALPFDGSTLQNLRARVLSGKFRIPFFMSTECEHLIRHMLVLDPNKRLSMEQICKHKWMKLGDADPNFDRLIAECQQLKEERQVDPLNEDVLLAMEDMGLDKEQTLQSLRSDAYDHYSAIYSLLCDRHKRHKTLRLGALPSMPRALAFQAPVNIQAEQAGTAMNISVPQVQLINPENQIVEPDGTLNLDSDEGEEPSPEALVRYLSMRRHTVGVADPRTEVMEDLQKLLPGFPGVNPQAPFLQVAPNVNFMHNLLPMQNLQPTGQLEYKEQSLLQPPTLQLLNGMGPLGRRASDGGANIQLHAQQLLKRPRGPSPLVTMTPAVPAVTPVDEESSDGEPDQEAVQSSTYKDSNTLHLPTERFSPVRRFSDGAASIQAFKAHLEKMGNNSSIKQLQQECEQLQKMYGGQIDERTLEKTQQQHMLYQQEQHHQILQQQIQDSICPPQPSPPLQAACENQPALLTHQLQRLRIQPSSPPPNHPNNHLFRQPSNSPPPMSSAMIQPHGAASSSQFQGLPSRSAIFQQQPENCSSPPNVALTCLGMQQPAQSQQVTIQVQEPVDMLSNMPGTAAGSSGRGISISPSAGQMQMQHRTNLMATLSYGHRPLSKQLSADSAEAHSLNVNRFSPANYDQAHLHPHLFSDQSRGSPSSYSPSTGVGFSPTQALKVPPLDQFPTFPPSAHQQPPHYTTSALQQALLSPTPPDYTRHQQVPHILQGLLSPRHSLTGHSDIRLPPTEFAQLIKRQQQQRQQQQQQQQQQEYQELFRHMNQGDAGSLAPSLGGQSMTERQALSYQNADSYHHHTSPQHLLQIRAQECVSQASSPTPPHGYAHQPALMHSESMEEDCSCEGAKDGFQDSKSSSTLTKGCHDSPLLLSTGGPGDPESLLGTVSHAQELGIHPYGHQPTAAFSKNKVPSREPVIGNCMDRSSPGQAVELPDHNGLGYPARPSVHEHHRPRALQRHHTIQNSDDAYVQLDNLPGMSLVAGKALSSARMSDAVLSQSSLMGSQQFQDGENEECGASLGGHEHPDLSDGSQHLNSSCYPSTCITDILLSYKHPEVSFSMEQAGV

[20] = molecular target: Heterogeneous nuclear ribonucleoprotein A0 (Homo sapiens) (UniProt Q13151); note: assay method not described here
[21] = molecular target: Minor histocompatibility antigen H13 (Homo sapiens) (UniProt Q8TCT9); note: assay method not described here
[22] = molecular target: Succinate--CoA ligase [ADP/GDP-forming] subunit alpha, mitochondrial (Homo sapiens) (UniProt P53597); note: assay method not described here
[23] = molecular target: Exocyst complex component 4 (Homo sapiens) (UniProt Q96A65); note: assay method not described here
[24] = molecular target: Peroxisomal multifunctional enzyme type 2 (Homo sapiens) (UniProt P51659); note: assay method not described here
Chain of Peroxisomal multifunctional enzyme type 2 (Homo sapiens) (P51659 whole entry): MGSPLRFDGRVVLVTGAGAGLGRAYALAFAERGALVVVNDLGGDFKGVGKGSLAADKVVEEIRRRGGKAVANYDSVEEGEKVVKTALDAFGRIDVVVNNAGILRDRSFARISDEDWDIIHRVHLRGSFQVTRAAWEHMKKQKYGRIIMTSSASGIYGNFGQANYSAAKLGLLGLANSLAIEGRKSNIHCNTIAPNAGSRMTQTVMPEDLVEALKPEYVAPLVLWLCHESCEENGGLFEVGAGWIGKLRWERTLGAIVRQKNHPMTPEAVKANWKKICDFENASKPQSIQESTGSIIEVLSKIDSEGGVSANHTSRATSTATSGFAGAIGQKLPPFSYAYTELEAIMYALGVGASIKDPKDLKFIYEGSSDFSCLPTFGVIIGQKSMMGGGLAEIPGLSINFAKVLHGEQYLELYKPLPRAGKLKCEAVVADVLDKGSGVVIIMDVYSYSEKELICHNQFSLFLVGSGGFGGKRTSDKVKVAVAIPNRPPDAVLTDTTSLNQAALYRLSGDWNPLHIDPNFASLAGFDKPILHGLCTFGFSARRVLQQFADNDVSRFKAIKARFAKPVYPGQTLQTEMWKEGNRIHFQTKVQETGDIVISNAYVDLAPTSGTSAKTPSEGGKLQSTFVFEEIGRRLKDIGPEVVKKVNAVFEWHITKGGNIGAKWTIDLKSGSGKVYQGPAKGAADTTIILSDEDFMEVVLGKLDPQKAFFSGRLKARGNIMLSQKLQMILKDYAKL

[25] = molecular target: RNA-binding protein FXR1 (Homo sapiens) (UniProt P51114); note: assay method not described here
[26] = molecular target: DDB1- and CUL4-associated factor 7 (Homo sapiens) (UniProt P61962); note: assay method not described here
[27] = molecular target: V-type proton ATPase subunit H (Homo sapiens) (UniProt Q9UI12); note: assay method not described here
[28] = molecular target: Cancer-related nucleoside-triphosphatase (Homo sapiens) (UniProt Q9BSD7); note: assay method not described here
[29] = molecular target: Small ribosomal subunit protein eS19 (Homo sapiens) (UniProt P39019); note: assay method not described here
[30] = molecular target: Delta-1-pyrroline-5-carboxylate synthase (Homo sapiens) (UniProt P54886); note: assay method not described here
Chain of Delta-1-pyrroline-5-carboxylate synthase (Homo sapiens) (P54886 whole entry): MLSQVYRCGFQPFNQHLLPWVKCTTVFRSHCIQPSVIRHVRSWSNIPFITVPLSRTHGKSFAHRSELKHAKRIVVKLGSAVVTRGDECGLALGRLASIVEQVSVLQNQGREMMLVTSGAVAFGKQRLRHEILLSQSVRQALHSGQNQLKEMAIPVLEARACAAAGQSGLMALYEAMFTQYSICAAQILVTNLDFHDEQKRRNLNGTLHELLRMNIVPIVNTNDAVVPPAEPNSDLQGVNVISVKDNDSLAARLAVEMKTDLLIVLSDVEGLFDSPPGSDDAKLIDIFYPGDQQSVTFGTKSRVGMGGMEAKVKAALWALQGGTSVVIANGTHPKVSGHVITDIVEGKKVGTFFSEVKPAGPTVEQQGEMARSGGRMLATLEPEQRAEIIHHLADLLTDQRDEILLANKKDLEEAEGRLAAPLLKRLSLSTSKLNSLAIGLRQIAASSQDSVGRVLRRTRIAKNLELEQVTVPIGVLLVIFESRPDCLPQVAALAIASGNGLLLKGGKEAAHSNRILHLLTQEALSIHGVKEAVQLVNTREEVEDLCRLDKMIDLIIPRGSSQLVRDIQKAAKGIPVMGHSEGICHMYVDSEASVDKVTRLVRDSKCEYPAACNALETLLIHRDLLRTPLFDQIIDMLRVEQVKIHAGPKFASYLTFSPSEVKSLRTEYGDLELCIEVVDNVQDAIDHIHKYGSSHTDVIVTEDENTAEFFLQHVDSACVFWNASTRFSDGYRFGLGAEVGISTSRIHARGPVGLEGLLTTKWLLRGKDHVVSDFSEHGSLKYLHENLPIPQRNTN

[31] = molecular target: Argininosuccinate synthase (Homo sapiens) (UniProt P00966); note: assay method not described here
Chain of Argininosuccinate synthase (Homo sapiens) (P00966 whole entry, the tested form may be a part): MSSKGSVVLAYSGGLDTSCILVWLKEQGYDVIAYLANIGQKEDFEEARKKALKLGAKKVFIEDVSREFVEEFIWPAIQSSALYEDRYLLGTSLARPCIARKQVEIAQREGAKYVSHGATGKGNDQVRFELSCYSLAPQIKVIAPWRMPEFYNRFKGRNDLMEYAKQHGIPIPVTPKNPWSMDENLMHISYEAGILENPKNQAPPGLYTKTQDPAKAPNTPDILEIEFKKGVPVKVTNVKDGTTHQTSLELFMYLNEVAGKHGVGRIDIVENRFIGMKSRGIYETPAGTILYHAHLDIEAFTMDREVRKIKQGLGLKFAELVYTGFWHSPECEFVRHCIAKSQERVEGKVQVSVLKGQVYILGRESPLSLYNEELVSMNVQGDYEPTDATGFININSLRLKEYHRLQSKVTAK

Ephrin type-A receptor 6 = Ephrin type-A receptor 6 (Homo sapiens, UniProt Q9UF33); experiment: Inhibition of Nano Luc-fused full length C-terminal EPHA6 (unknown origin) expressed in HEK293T cells using NanoGlo as substrate incubated for 2 hrs in presence of tracer by NanoBRET assay; type: cell-based
[32] = molecular target: F-actin-capping protein subunit beta (Homo sapiens) (UniProt P47756); note: assay method not described here
Chain of F-actin-capping protein subunit beta (Homo sapiens) (P47756 whole entry): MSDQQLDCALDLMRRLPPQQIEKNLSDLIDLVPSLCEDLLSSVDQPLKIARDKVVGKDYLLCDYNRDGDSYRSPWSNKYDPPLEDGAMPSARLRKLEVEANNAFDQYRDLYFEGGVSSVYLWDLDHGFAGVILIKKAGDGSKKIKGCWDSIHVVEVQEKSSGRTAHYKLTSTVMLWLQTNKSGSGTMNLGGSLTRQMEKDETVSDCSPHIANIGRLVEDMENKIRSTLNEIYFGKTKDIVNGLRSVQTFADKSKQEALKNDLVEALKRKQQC

Cullin-1 (Homo sapiens) = Cullin-1 (Homo sapiens) (UniProt Q13616); note: assay method not described here
[33] = molecular target: Synaptic vesicle membrane protein VAT-1 homolog (Homo sapiens) (UniProt Q99536); note: assay method not described here
Ephrin type-B receptor 4 = Ephrin type-B receptor 4 (Homo sapiens, UniProt P54760); type: cell-based, HEK293T
[34] = molecular target: Actin-like protein 6A (Homo sapiens) (UniProt O96019); note: assay method not described here
[35] = molecular target: Small ribosomal subunit protein eS8 (Homo sapiens) (UniProt P62241); note: assay method not described here
[36] = molecular target: Isoleucine--tRNA ligase, cytoplasmic (Homo sapiens) (UniProt P41252); note: assay method not described here
[37] = molecular target: Cyclin-dependent kinase 12 (Homo sapiens) (UniProt Q9NYV4); note: assay method not described here
[38] = molecular target: Double-stranded RNA-binding protein Staufen homolog 1 (Homo sapiens) (UniProt O95793); note: assay method not described here
[39] = molecular target: DnaJ homolog subfamily A member 3, mitochondrial (Homo sapiens) (UniProt Q96EY1); note: assay method not described here
Chain of DnaJ homolog subfamily A member 3, mitochondrial (Homo sapiens) (Q96EY1 whole entry): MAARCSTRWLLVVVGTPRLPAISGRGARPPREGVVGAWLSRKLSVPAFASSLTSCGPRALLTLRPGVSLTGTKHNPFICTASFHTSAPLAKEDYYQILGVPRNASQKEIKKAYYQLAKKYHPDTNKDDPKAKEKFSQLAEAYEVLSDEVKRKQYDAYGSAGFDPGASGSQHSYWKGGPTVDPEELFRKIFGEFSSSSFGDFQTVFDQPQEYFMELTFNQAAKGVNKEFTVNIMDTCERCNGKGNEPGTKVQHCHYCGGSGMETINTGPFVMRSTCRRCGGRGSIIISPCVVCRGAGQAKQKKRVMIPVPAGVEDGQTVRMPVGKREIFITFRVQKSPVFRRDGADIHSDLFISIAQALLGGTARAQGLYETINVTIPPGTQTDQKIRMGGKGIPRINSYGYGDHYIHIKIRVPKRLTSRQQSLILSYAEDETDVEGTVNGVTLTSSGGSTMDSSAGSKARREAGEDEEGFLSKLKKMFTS

Chain of Nucleolin (Homo sapiens) (P19338 whole entry): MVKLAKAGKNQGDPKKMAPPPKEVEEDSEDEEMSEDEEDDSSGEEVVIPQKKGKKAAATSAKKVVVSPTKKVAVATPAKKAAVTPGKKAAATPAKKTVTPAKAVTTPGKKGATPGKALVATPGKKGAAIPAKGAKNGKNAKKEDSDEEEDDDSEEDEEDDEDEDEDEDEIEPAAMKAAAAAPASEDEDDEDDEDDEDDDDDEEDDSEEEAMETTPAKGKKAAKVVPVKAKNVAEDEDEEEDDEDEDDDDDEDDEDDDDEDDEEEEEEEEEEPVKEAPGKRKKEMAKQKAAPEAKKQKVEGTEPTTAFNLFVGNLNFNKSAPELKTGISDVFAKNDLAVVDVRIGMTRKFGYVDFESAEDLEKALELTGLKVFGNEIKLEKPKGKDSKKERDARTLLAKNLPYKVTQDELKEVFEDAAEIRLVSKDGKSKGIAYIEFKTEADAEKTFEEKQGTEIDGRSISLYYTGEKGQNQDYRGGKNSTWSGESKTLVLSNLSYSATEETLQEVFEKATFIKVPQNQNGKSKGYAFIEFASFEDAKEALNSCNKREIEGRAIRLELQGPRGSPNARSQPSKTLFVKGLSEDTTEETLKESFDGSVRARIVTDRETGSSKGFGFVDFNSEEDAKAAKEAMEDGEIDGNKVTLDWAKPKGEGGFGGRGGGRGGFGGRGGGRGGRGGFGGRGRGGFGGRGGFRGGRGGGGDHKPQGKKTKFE

Cc1ccc(C(=O)Nc2cccc(C(F)(F)F)c2)cc1Nc1nc(-c2cccnc2)nc2nn(C)cc12
ED50 (Nucleolin (Homo sapiens)): 30.3 µM | ED50 [1]: 0.00933 µM | ED50 (Vinculin (Homo sapiens)): 68.1 µM | ED50 [2]: 0.0406 µM | ED50 (Homo sapiens [3]): 7.5 µM | ED50 [4]: 16.7 µM | ED50 (Homo sapiens [5]): 0.961 µM | ED50 (Cullin-3 (Homo sapiens)): 1.09 µM | ED50 [6]: 0.032 µM | ED50 [7]: 9.95 µM | ED50 [8]: 1.68 µM | ED50 [9]: 0.00513 µM | ED50 [10]: 0.148 µM | ED50 [11]: 0.0801 µM | ED50 [12]: 97.9 µM | ED50 [13]: 0.0544 µM | ED50 [14]: 0.0813 µM | ED50 [15]: 0.0178 µM | ED50 [16]: 7.99 µM | ED50 [17]: 0.377 µM | ED50 [18]: 3690 µM | ED50 [19]: 10.4 µM | ED50 [20]: 0.0174 µM | ED50 [21]: 10.6 µM | ED50 [22]: 0.877 µM | ED50 [23]: 0.0488 µM | ED50 [24]: 0.85 µM | ED50 [25]: 0.00197 µM | ED50 [26]: 0.184 µM | ED50 [27]: 2.38 µM | ED50 [28]: 0.0608 µM | ED50 [29]: 0.199 µM | ED50 [30]: 41.7 µM | ED50 [31]: 0.0579 µM | IC50 (Ephrin type-A receptor 6): > 50 µM | ED50 [32]: 0.393 µM | ED50 (Cullin-1 (Homo sapiens)): 0.0051 µM | ED50 [33]: 145 µM | IC50 (Ephrin type-B receptor 4): 1.66 µM | ED50 [34]: 12.6 µM | ED50 [35]: 9.51 µM | ED50 [36]: 4.57 µM | ED50 [37]: 0.435 µM | ED50 [38]: 0.0134 µM | ED50 [39]: 0.193 µM

Cc1ccc(C(=O)Nc2cccc(C(F)(F)F)c2)cc1Nc1nc(-c2cccnc2)nc2c1cnn2C
ED50 (Nucleolin (Homo sapiens)): 2.79 µM | ED50 [1]: 0.108 µM | ED50 (Vinculin (Homo sapiens)): 0.359 µM | ED50 [2]: 0.00386 µM | ED50 (Homo sapiens [3]): 3.03 µM | ED50 [4]: 0.00514 µM | ED50 (Homo sapiens [5]): 5.49 µM | ED50 (Cullin-3 (Homo sapiens)): 0.0191 µM | ED50 [6]: 0.0263 µM | ED50 [7]: 1.64 µM | ED50 [8]: 4.06 µM | ED50 [9]: 65.5 µM | ED50 [10]: 0.0041 µM | ED50 [11]: 0.0419 µM | ED50 [12]: 146 µM | ED50 [13]: 2.9 µM | ED50 [14]: 1.06 µM | ED50 [15]: 11.2 µM | ED50 [16]: 0.0089 µM | ED50 [17]: 3.68 µM | ED50 [18]: 23.3 µM | ED50 [19]: 112 µM | ED50 [20]: 4.39 µM | ED50 [21]: 9.93 µM | ED50 [22]: 0.0563 µM | ED50 [23]: 11.4 µM | ED50 [24]: 1.36 µM | ED50 [25]: 0.00957 µM | ED50 [26]: 1.12 µM | ED50 [27]: 0.00175 µM | ED50 [28]: 844 µM | ED50 [29]: 0.645 µM | ED50 [30]: 224 µM | ED50 [31]: 5.02 µM | IC50 (Ephrin type-A receptor 6): 0.263 µM | ED50 [32]: 8.9 µM | ED50 (Cullin-1 (Homo sapiens)): 0.000443 µM | ED50 [33]: 7.96 µM | IC50 (Ephrin type-B receptor 4): 0.003 µM | ED50 [34]: 3.26 µM | ED50 [35]: 1.62 µM | ED50 [36]: 0.0944 µM | ED50 [37]: 0.00103 µM | ED50 [38]: 2.27 µM | ED50 [39]: 0.00101 µM
